From patent US11744830B2, “Ameliorative agent for cytokine release syndrome and so on” (TORII PHARMACEUTICAL CO., LTD., priority 2018, dated 2023)
Counter-ions that a name gives are not always drawn.

Experiments:
[1] = test system: TNF-α production from CD8^+ T cells; assay: T-cell stimulation bead-induced TNF-α production in CD8^+ T cells; format: cell-based, human; details: CD3/CD28 stimulation, 3 days
Protocol: (§1) Cryopreserved PBMCs were quickly thawed in a 37° C. thermostat and added to a tube containing medium. After centrifugation (at room temperature at 300 g for 10 minutes) to remove the supernatant, the cells were suspended in the medium, a portion of which was then mixed with a trypan blue solution to count the number of viable cells. The cell suspension was centrifuged (at room temperature at 300 g for 10 minutes) to remove the supernatant, followed by addition of MACS Buffer in a volume of 80 μL per 1×10^7 cells to suspend the cells, to which Human CD8 MicroBeads (20 μL) were further added. After being allowed to stand on ice for 15 minutes, the cell suspension was diluted with MACS Buffer (2 mL) and centrifuged (at room temperature at 300 g for 10 minutes) to remove the supernatant.
MACS Buffer (500 μL) was added to the tube, and the cells were suspended and then applied to a separatory column to separate CD8^+ cells. The CD8^+ cell fraction was diluted to 15 mL with the medium and then centrifuged (at room temperature at 300 g for 10 minutes). The supernatant was removed and the cells were suspended in the medium (1 mL), followed by counting the number of viable cells. The cell suspension adjusted with the medium to 1×10^6 cells/mL was seeded in a 96-well plate in a volume of 100 μL/well (1×10^5 cells/well) and allowed to stand in a CO2 incubator for 1 to 2 hours.
The culture supernatants collected in 1.2.1 were quantified for TNF-α using Human TNF-α DuoSet ELISA.

[2] = test system: TNF-α production from CD14^+ cells; assay: LPS stimulation-induced TNF-α production in CD14^+ cells; format: cell-based, human; details: for IC50: LPS 3 ng/mL, 3 days
Protocol: as §1, with “suspended again” for “suspended”, “followed by counting” for “a portion of which was then mixed with a trypan blue solution to count”, “Buffer” for “Buffer in a volume of 80 μL per 1×10^7 cells”, “CD14” for “CD8”, “MicroBeads” for “MicroBeads (20 μL)”, “Buffer” for “Buffer (2 mL)”
MACS Buffer was added to the tube, and the cells were suspended and then applied to a separatory column to separate CD14^+ cells. The CD14^+ cell fraction was diluted with the medium and then centrifuged (at room temperature at 300 g for 10 minutes). The supernatant was removed and the cells were suspended in the medium (1 mL), followed by counting the number of viable cells. The cell suspension was adjusted with the medium to 2.4×10^5 or 3×10^5 cells/mL and seeded in a 96-well plate (2.4×10^4 cells/well), which was then allowed to stand in a CO2 incubator for 1 to 2 hours.
(§2) The culture supernatants collected in 1.2.2 were quantified for TNF-α using Human TNF-α DuoSet ELISA.

[3] = test system: TNF-α production in PBMCs; assay: LPS stimulation-induced TNF-α production in PBMCs; format: cell-based; details: Homo sapiens, PBMC
Protocol: Cryopreserved PBMCs were quickly thawed in a 37° C. thermostat and added to a tube containing medium. After centrifugation (at room temperature at 300 g for 10 minutes) to remove the supernatant, the cells were suspended again in the medium (10 mL), followed by counting the number of viable cells. After centrifugation (at room temperature at 300 g for 10 minutes) to remove the supernatant, the medium was added to suspend the cells at 1×10^6 cells/mL. This cell suspension was seeded in a 96-well plate in a volume of 100 μL/well (1×10^5 cells/well). […] The cells were cultured in a CO2 incubator for 3 days to collect the culture supernatants.
as §2

[4] = test system: IL-6 production from PBMCs; assay: T-cell stimulation bead- and LPS stimulation-induced CRS toxicity evaluation system in PBMCs: IL-6; format: cell-based, human; details: CD3/CD28 + LPS; for IC50: Homo sapiens, PBMC, 72 h, 3 days
Protocol: Cryopreserved PBMCs were quickly thawed in a 37° C. thermostat and added to a tube containing medium. After centrifugation (at room temperature at 300 g for 10 minutes) to remove the supernatant, the cells were suspended again in the medium (10 mL), followed by counting the number of viable cells. After centrifugation (at room temperature at 300 g for 10 minutes) to remove the supernatant, the medium was added to suspend the cells at 1×10^6 cells/mL. This cell suspension was seeded in a 96-well plate in a volume of 100 μl/well (1×10^5 cells/well) and allowed to stand in a CO2 incubator for 1 to 2 hours.
The cells were cultured in a CO2 incubator for 3 days to collect the culture supernatants.
(§3) The collected culture supernatants were quantified for IFN-γ and IL-6 using Human IFN-γ DuoSet ELISA and Human IL-6 DuoSet ELISA.

[5] = test system: IL-6 production in CD4^+ T cell-depleted PBMCs; assay: T-cell stimulation bead- and LPS stimulation-induced CRS toxicity evaluation system in CD4^+ T cell-depleted PBMCs: IL-6; format: cell-based, human; details: for IC50: Homo sapiens, 72 h, 3 days
Protocol: Cryopreserved human PBMCs were quickly thawed in a 37° C. thermostat and added to a tube containing medium. After centrifugation (at room temperature at 300 g for 10 minutes) to remove the supernatant, the cells were suspended again in the medium (10 mL), followed by counting the number of viable cells. The remainder of the cell suspension was centrifuged (at room temperature at 300 g for 10 minutes) to remove the supernatant, followed by addition of MACS Buffer in a volume of 80 μL and Human CD4 MicroBeads in a volume of 20 μL per 1×10^7 cells to suspend the cells. After being allowed to stand on ice for 15 minutes, the cell suspension was diluted with MACS Buffer (2 mL) and centrifuged (at room temperature at 300 g for 10 minutes) to remove the supernatant. MACS Buffer (500 μL) was added to the tube, and the cells were suspended and then applied to a separatory column to separate CD4^− cells (a pass-through fraction of CD4^+ cells). The CD4^− cell fraction was diluted to 15 mL with the medium and then centrifuged (at room temperature at 300 g for 10 minutes) to remove the supernatant, and the cells were then suspended again in the medium (1 mL), followed by counting the number of viable cells. The cell suspension adjusted with the medium to 1×10^6 cells/mL was seeded in a 96-well plate in a volume of 100 μl/well (1×10^5 cells/well) and allowed to stand in a CO2 incubator for 1 to 2 hours.
as §3

IL-6 production = assay: CRS toxicity evaluation system using CAR-T cells: IL-6; format: cell-based, human; details: for IC50: Homo sapiens, Monocyte, CAR-T cells, target cells and monocytes, 72 hours
Protocol: The supernatants were collected at 72 hours after the initiation of culture, and various cytokines in each supernatant were measured by FACS multiplex assay.

| SMILES | IC50 [1] [nM] | IC50 ([1]; Homo sapiens, T-cell, 72 h) [nM] | IC50 ([2]; Homo sapiens, 72 h) [nM] | IC50 [2] [nM] | IC50 [3] [nM] | IC50 [4] [nM] | IC50 ([5]; CD3/CD28 + LPS) [nM] | suppression of IL-6 production ([5]; T-cell stimulation beads and LPS) | suppressive effect on IL-6 production (IL-6 production; CRS toxicity evaluation system using CAR-T cells) | IC50 (IL-6 production) [nM] | IC50 ([1]; dihydrochloride) [nM] | suppressive effect on TNF-α production ([2]; LPS) | Ratio (IL-6/IFN-γ) of IC50 values [4] | Ratio (IL-6/IFN-γ) of IC50 values ([5]; CD3/CD28 + LPS) |
| --- | --- | --- | --- | --- | --- | --- | --- | --- | --- | --- | --- | --- | --- | --- |
| C[C@]12C=CC(=O)C=C1CC[C@@H]1[C@@H]2[C@@H](O)C[C@@]2(C)[C@H]1CC[C@]2(O)C(=O)CO [PSL, Prednisolone] | 35 | 34.8 | 41.7 | 42 | 73 | 3570 | > 30000 | did not suppress | no suppressive effect | > 10000 | – | – | – | – |
| CCOC(=O)[C@H](Cc1ccccc1)NC(=O)c1cc(Cl)c(OCCN2CCN(C)CC2)c(Cl)c1O [JTE-607, (−)-ethyl N-{3,5-dichloro-2-hydroxy-4-[2-(4-methylpiperazin-1-yl)ethoxy]benzoyl}-L-phenylalaninate dihydrochloride] | – | 231 | > 300 | – | 30.7 | 40.4 | 42.2 | – | – | 188 | 231 | suppressive effect in a manner dependent on its concentration added | 0.81 | 0.52 |
